# According to patent US20220251158A1, “INTERMEDIATE FILAMENT-DERIVED PEPTIDES AND THEIR USES” (UNIVERSITAT DE LLEIDA, priority 2019, published 2022):
# Tested on: different populations of leukocytes
# Test: Annexin V expression in leukocytes with 9 amino acid core peptides
# Assay type: cell-based
# Conditions: 9 amino acid peptide added directly to cell culture
# Method: For cell death and apoptosis analysis, 400.000 of primary cells or 100.000 of cell line cells were incubated in 96-well plates in 200 μL of complete culture medium for 24 h at 37° C. and 5% CO2 in the absence or presence of 55 μM of different peptides. After 1 hour, 24 hours or 48 hours, apoptosis was measured by CFBlue Annexin V Apoptosis Detection Kit with PI (ANXVKCFB-100T, Immunostep), following kit protocol. For cleaved caspasa-3 intracellular staining, mononuclear cells were permeabilised following the manufacturer's instructions of the FoxP3 Staining Buffer Set (00-5523-00, eBioscience) and the cleaved caspasa-3-Pacific Blue (8788S, Cell Signalling) was used for staining. Cell suspensions were analysed by flow cytometry using FACS CANTO II instrumentation (BD, Biosciences, San Jose, Calif.) and Flowjo (version 8.7) software.
row,Sequence,induction of the expression of annexin V
1,VKLALDIEI (Variant of core sequence - GFAP9),not to be positive
2,VKMALDIEI (Variant of core sequence - Per9),not to be positive
3,VKMALDVEI (Variant of core sequence - Des9),not to be positive
